Test results published in the supplement of paper PMC10627819.

Key:
Test in all cases: fitness (endpoint OD595 vs no drug) (fraction); higher = more growth
[1] = test system: B. subtilis 168
How it was run: (§1)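 In 384-well plates at 37 °C, cultures began at OD595 0.01 in 30 µl, with 55 µl used for S. pneumoniae. OD595 readings every 30 min for 14 h were corrected by the first reading. Fitness divides the stationary-phase transition optical density by the robust mean of no-drug control wells. The result is capped at 1.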

[2] = test system: S. pneumoniae D39V
How it was run: as §1

[3] = test system: S. aureus Newman
How it was run: as §1
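Further: OD595 on entry to stationary phase over no-drug wells; at most 1.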

O=C(O)[C@H]1/C(=C/CO)O[C@@H]2CC(=O)N21 [Clavulanic acid] + C[C@H]1c2cccc(O)c2C(=O)C2=C(O)[C@]3(O)C(=O)C(C(N)=O)=C(O)[C@@H](N(C)C)[C@@H]3[C@@H](O)[C@@H]21 [Doxycycline]
Details	fitness
[1], first compound 1.5 µg/mL, partner 0.02 µg/mL	0.862
[1], first compound 1.5 µg/mL, partner 0.04 µg/mL	0.762
[1], first compound 3 µg/mL, partner 0.02 µg/mL	0.852
[1], first compound 3 µg/mL, partner 0.04 µg/mL	0.721
[1], first compound 6 µg/mL, partner 0.02 µg/mL	0.728
[1], first compound 6 µg/mL, partner 0.04 µg/mL	0.628
[1], first compound 6 µg/mL, partner 0.08 µg/mL	0.375
[2], first compound 0.5 µg/mL, partner 0.0155 µg/mL	0.929
[2], first compound 1 µg/mL, partner 0.0155 µg/mL	0.892
[2], first compound 1 µg/mL, partner 0.031 µg/mL	0.615
[2], first compound 1 µg/mL, partner 0.062 µg/mL	0.429
[2], first compound 2 µg/mL, partner 0.0155 µg/mL	0.73
[2], first compound 2 µg/mL, partner 0.031 µg/mL	0.45
[2], first compound 2 µg/mL, partner 0.062 µg/mL	0.281

fitness, [2], one replicate
Details	first compound 0.5 µg/mL	first compound 1 µg/mL	first compound 2 µg/mL
partner 0.003875 µg/mL	≥ 1	0.985	0.9
partner 0.00775 µg/mL	0.998	0.964	0.895

O=C(O)[C@H]1/C(=C/CO)O[C@@H]2CC(=O)N21 [Clavulanic acid] + Clc1ccc(COC(Cn2ccnc2)c2ccc(Cl)cc2Cl)c(Cl)c1 [Miconazole]
fitness, [2]
Details	partner 1.073 µg/mL	partner 1.25 µg/mL	partner 2.145 µg/mL	partner 2.5 µg/mL	partner 4.29 µg/mL	partner 5 µg/mL
first compound 0.5 µg/mL	≥ 1	0.956	0.973	0.981	0.924	0.94
first compound 1 µg/mL	≥ 1	0.876	0.923	0.873	0.883	0.838
first compound 2 µg/mL	0.898	0.715	0.787	0.66	0.754	0.653

O=C(O)[C@H]1/C(=C/CO)O[C@@H]2CC(=O)N21 [Clavulanic acid] + O=C1CN(/N=C/c2ccc([N+](=O)[O-])o2)C(=O)N1 [Nitrofurantoin]
fitness, [2]
Details	partner 1.285 µg/mL	partner 2 µg/mL	partner 2.57 µg/mL	partner 4 µg/mL	partner 8 µg/mL
first compound 0.5 µg/mL	0.916	0.92	0.943	0.878	0.628
first compound 1 µg/mL	0.933	0.887	0.94	0.773	0.544
first compound 2 µg/mL	0.883	0.658	0.874	0.59	0.358

[2], partner 5.14 µg/mL, one replicate
Details	fitness
first compound 0.5 µg/mL	0.898
first compound 1 µg/mL	0.852
first compound 2 µg/mL	0.817

CNC(C)C1CCC(N)C(OC2C(N)CC(N)C(OC3OCC(C)(O)C(NC)C3O)C2O)O1 (stereo unspecified) [Gentamicin] + CC1(C)S[C@@H]2[C@H](NC(=O)Cc3ccccc3)C(=O)N2[C@H]1C(=O)O [Penicillin G]
fitness, [3], main component drawn
Details	first compound 0.375 µg/mL	first compound 0.5 µg/mL	first compound 0.75 µg/mL	first compound 1 µg/mL	first compound 1.5 µg/mL	first compound 2 µg/mL
partner 0.0195 µg/mL	0.836	0.901	0.82	0.937	0.865	0.98
partner 0.039 µg/mL	0.948	0.897	0.914	0.939	0.944	0.96
partner 0.078 µg/mL	0.944	0.842	0.925	0.886	0.918	0.924

Clc1ccc(COC(Cn2ccnc2)c2ccc(Cl)cc2Cl)c(Cl)c1 (stereo unspecified) [Miconazole] + CO[C@@]12[C@H](COC(N)=O)C3=C(C(=O)C(C)=C(N)C3=O)N1C[C@@H]1N[C@@H]12 [Mitomycin C]
fitness, [2]
Details	first compound 1.073 µg/mL	first compound 1.25 µg/mL	first compound 2.145 µg/mL	first compound 2.5 µg/mL	first compound 4.29 µg/mL	first compound 5 µg/mL
partner 0.001075 µg/mL	–	0.983	–	0.979	–	0.95
partner 0.002 µg/mL	0.882	–	0.883	–	0.779	–
partner 0.00215 µg/mL	–	0.88	–	0.898	–	0.907
partner 0.004 µg/mL	0.854	–	0.826	–	0.742	–
partner 0.0043 µg/mL	–	0.786	–	0.777	–	0.812
partner 0.008 µg/mL	0.718	–	0.748	–	0.64	–

Clc1ccc(COC(Cn2ccnc2)c2ccc(Cl)cc2Cl)c(Cl)c1 (stereo unspecified) [Miconazole] + Cc1ncc([N+](=O)[O-])n1CCO [Metronidazole]
fitness, [2]
Details	first compound 1.073 µg/mL	first compound 1.25 µg/mL	first compound 2.145 µg/mL	first compound 2.5 µg/mL	first compound 4.29 µg/mL	first compound 5 µg/mL
partner 1.073 µg/mL	–	0.934	–	0.955	–	0.972
partner 1.25 µg/mL	≥ 1	–	≥ 1	–	0.99	–
partner 2.145 µg/mL	–	0.932	–	0.858	–	0.846
partner 2.5 µg/mL	≥ 1	–	≥ 1	–	0.888	–
partner 4.29 µg/mL	–	0.905	–	0.884	–	0.94
partner 5 µg/mL	≥ 1	–	≥ 1	–	0.984	–

Cc1onc(-c2ccccc2)c1C(=O)N[C@@H]1C(=O)N2[C@@H]1SC(C)(C)[C@@H]2C(=O)O [Oxacillin] + CC1(C)S[C@@H]2[C@H](NC(=O)Cc3ccccc3)C(=O)N2[C@H]1C(=O)O [Penicillin G]
fitness, [3]
Details	partner 0.0195 µg/mL	partner 0.039 µg/mL	partner 0.078 µg/mL
first compound 0.0156 µg/mL	0.768	0.748	0.727
first compound 0.0312 µg/mL	0.659	0.688	0.66
